From patent publication US6673770B1, “Peptides for the treatment, prophylaxis, diagnosis and monitoring of autoimmune diseases” (Upither B.V., priority 1998, dated 2004)

Columns and labels:
T cell clone A2b = experiment: Recognition by A2b T-cell clone: proliferation and/or activation marker expression; assay type: cell-based, Lewis rats; details: positive: proliferation more than 2 times background in 2 of 4 experiments and/or activation marker upregulation in 2 of 3 experiments
Experimental: As an immediate read-out for mimicry peptides T-cell activation is measured by proliferation, TcR downregulation, expression of activation markers, and cytokines responses of clone A2b. In addition A2b-like T cells from arthritic rats are isolated, and activation of such cells is measured by, proliferation, TcR downregulation, expression of activation markers, and cytokines responses. Furthermore, T-cell lines are generated after immunisation with MT/IFA or selected peptides/DDA. The cross-reactive nature of the peptide specific T-cell responses is analysed in vitro by determining the recognition of both the self peptide as well as the mycobacterial hsp65 178-186 peptide. After testing the panel of n=65 peptides for induction of proliferation of T cell clone A2b, and/or induction of expression of activation markers, n=20 peptides (SEQ ID NOs: 15, 19, 20, 21, 22, 23, 24, 26, 30, 31, 32, 33, 35, 49, 51, 61, 63, 65, 67, 69) were considered positive. Criteria for positivity were that in 2 out of 4 experiments the induced proliferation was more than 2 times background proliferation as measured by ^3H-thymidine incorporation, and/or that in 2 out of 3 experiments upregulation of an activation marker was detectable by FACS analysis.

DTH reaction = experiment: Delayed type hypersensitivity reaction after peptide/DDA immunisation; assay type: in vivo, rats; details: challenge day 72, peptide/saline s.c. in ear; measured 24 and 48 hr
Experimental: # DTH (Delayed type hypersensitivity) reactions are induced at day 72 after immunisation of peptide/DDA, by subcutaneous injection of the peptide/saline in the ear. DTH are measured 24 and 48 hr after challenge.

arthritis = experiment: Arthritis induction by immunisation with peptide in DDA adjuvant; assay type: in vivo; details: rats with clinical arthritis/rats immunised; 50 μg peptide in 100 μl DDA, one hind footpad
Experimental: To check the arthritogenic potential of the selected peptides, rats are immunised with 50 μg peptide in 100 μl DDA adjuvant in one hind footpad. […] Two of the five peptides show defined clinical arthritis. * Arthritis is induced by Immunisation of 50 μg peptide in 100 μl DDA adjuvants in one hind footpad and scored upon clinical examination.

adjuvant arthritis = experiment: Nasal peptide administration in the adjuvant arthritis model; assay type: in vivo, rats; details: for Day of onset / Arthritis score: 100 μg peptide nasal at days 0, 3, 7, 11, mean±sd, n=4 rats; for Arthritis score: scale 0-16
Experimental: The potential arthritis protective qualities of selected peptides/proteins are tested through nasal or oral tolerance induction in the adjuvant arthritis model.
* Adjuvant arthritis is induced at day 0 by immunisation of MT/IFA (5 mg/ml MT) at the base of the tail. At days 0, 3, 7 and 11, 100 μg peptide in 10 μl saline is administered in the nostrils. Arthritis is scored upon clinical examination on a scale from 0-16. Data are expressed as mean±sd (n=4 rats/group).

Sequence	Recognition by T cell clone A2b (T cell clone A2b)	DTH reaction (DTH reaction)	Arthritis Induction (arthritis)	Day of onset (adjuvant arthritis)	Protective effect in adjuvant arthritis upon nasal administration (adjuvant arthritis; in words)	Arthritis score (adjuvant arthritis)
LKSVNGQIE (listed as Rattus sp.) [SEQ ID NO: 15]	positive	2/2	0/4	15.0 ± 1.7	protective effect	4.3 ± 4.8
VSSFSLNVE (listed as Rattus sp.) [SEQ ID NO: 26]	positive	2/2	0/4	13.0 ± 0	–	11.0 ± 3.5
